Assay results from PubChem BioAssay AID1259408 (Genetic Toxicology Data Bank (GENE-TOX), 2018).
The source made the active and inactive calls. The rule behind the calls is not given here.

Test system: GENE-TOX genotoxicity assays, various organisms and cells
Experiment: GENE-TOX mutagenicity studies
Conditions: for call: Assay Type: In vivo carcinogenicity studies
[1] = Species/Cell Type: Arabidopsis species, Assay Type: Gene mutation, Assay Code: ARM-, Evaluation Type: Evaluation A (Pre-1980)
[2] = Species/Cell Type: Escherichia coli polA (W3119 vs P3478), Assay Type: Rec-assay, DNA effects (bacterial DNA repair), Assay Code: RE1T, Evaluation Type: Evaluation A (Pre-1980)
[3] = Species/Cell Type: Human lymphocytes, Assay Type: Sister-chromatid exchange (SCE) in vitro, Assay Code: SCL+D, Dose Response: With dose response, Evaluation Type: Evaluation B (Post-1980)
[4] = Species/Cell Type: Human, Assay Type: Sister-chromatid exchange (SCE) in vitro, Assay Code: SC1+D, Dose Response: With dose response, Evaluation Type: Evaluation B (Post-1980)
[5] = Species/Cell Type: Salmonella typhimurium (one or more of the five standard strains: TA98, TA100, TA1535, TA1537, and TA1538), Assay Type: Histidine reverse gene mutation, Ames assay, Assay Code: SAL-, Evaluation Type: Evaluation A (Pre-1980)
[6] = Species/Cell Type: Allium cepa, Assay Type: Chromosome aberrations, Assay Code: ALC+, Evaluation Type: Evaluation A (Pre-1980)
[7] = Species/Cell Type: Salmonella typhimurium (one or more of the five standard strains: TA98, TA100, TA1535, TA1537, and TA1538), Assay Type: Histidine reverse gene mutation, Ames assay, Assay Code: SAL+, Evaluation Type: Evaluation A (Pre-1980)
[8] = Species/Cell Type: Salmonella typhimurium (one or more of the five standard strains: TA98, TA100, TA1535, TA1537, and TA1538), Assay Type: Histidine reverse gene mutation, Ames assay, Assay Code: SAL+*, Activation: With metabolic activation, Evaluation Type: Evaluation A (Pre-1980)
[9] = Species/Cell Type: Salmonella typhimurium (one or more of the five standard strains: TA98, TA100, TA1535, TA1537, and TA1538), Assay Type: Histidine reverse gene mutation, Ames assay, Assay Code: SALT, Evaluation Type: Evaluation A (Pre-1980)
[10] = Species/Cell Type: Rodents, Sex: Male, Assay Type: Dominant lethal test, Assay Code: DLT-, Evaluation Type: Evaluation A (Pre-1980)

O=c1[nH]c(=O)n([C@H]2C[C@H](O)[C@@H](CO)O2)cc1I
mutagenic call [1]: inactive; negative | mutagenic call (Species/Cell Type: Drosophila melanogaster, Assay Type: Sex-linked recessive lethal gene mutation, Assay Code: SRLT, Evaluation Type: Evaluation A (Pre-1980)): no conclusion | mutagenic call [2]: no conclusion | mutagenic call (Species/Cell Type: Human diploid fibroblasts, Assay Type: Unscheduled DNA synthesis (UDS) in vitro, DNA effects, Assay Code: UDH-, Evaluation Type: Evaluation A (Pre-1980)): inactive; negative | mutagenic call [3]: active; positive | mutagenic call [4]: active; positive | mutagenic call (Species/Cell Type: Mammalian polychromatic erythrocytes, Assay Type: Micronucleus test, chromosome aberrations, Assay Code: MNTT, Evaluation Type: Evaluation A (Pre-1980)): no conclusion | mutagenic call (Species/Cell Type: Mouse, Sex: Male, Assay Type: Sperm morphology, Assay Code: SPI+, Evaluation Type: Evaluation A (Pre-1980)): active; positive | mutagenic call (Species/Cell Type: Saccharomyces cerevisiae, Assay Type: Mitotic recombination or gene conversion, Assay Code: YEH-*, Activation: With metabolic activation, Evaluation Type: Evaluation A (Pre-1980)): inactive; negative | mutagenic call [5]: inactive; negative | mutagenic call (Species/Cell Type: Salmonella typhimurium, Assay Type: Forward and reverse gene mutation, host-mediated assay, Assay Code: HMA-, Evaluation Type: Evaluation A (Pre-1980)): inactive; negative | mutagenic call (Species/Cell Type: Syrian hamster embryo (SA7/SHE) cells, Assay Type: Cell transformation, viral enhanced, Assay Code: CT7+, Evaluation Type: Evaluation A (Pre-1980)): active; positive | mutagenic call (Species/Cell Type: Syrian hamster embryo (SHE) cells, Assay Type: Cell transformation, clonal assay, Assay Code: CTC-, Evaluation Type: Evaluation A (Pre-1980)): inactive; negative

O=[N+]([O-])c1ccc(O)c([N+](=O)[O-])c1
mutagenic call [6]: active; positive | mutagenic call [1]: inactive; negative

CC(=O)OC(c1ccc2c(c1)OCO2)C1CO1 (configuration not stated)
mutagenic call [7]: active; positive

Cc1cc(-c2ccccc2C)ccc1N
mutagenic call (Species/Cell Type: Escherichia coli polA (W3110 vs P3478), Assay Type: Rec-assay, DNA effects (bacterial DNA repair), Assay Code: RE2+, Evaluation Type: Evaluation A (Pre-1980)): active; positive | mutagenic call [2]: no conclusion | mutagenic call (Species/Cell Type: Rat primary hepatocytes, Assay Type: Unscheduled DNA synthesis (UDS) in vitro, DNA effects, Assay Code: UDP+, Evaluation Type: Evaluation A (Pre-1980)): active; positive | mutagenic call (Species/Cell Type: Saccharomyces cerevisiae, Assay Type: Mitotic recombination or gene conversion, Assay Code: YEH-, Evaluation Type: Evaluation A (Pre-1980)): inactive; negative | mutagenic call [8]: active; positive | mutagenic call (Species/Cell Type: Salmonella typhimurium, Assay Type: Forward and reverse gene mutation, body fluid assay, Assay Code: BFU+, Evaluation Type: Evaluation A (Pre-1980)): active; positive | mutagenic call (Species/Cell Type: Salmonella typhimurium, Assay Type: Forward and reverse gene mutation, host-mediated assay, Assay Code: HMA+, Evaluation Type: Evaluation A (Pre-1980)): active; positive | mutagenic call (Species/Cell Type: Syrian hamster embryo (SHE) cells, Assay Type: Cell transformation, clonal assay, Assay Code: CTC+D, Dose Response: With dose response, Evaluation Type: Evaluation A (Pre-1980)): active; positive

O=c1cc[nH]c2ccccc12
mutagenic call [5]: inactive; negative

O=C(OCC1=CCN2CC[C@@H](OC(=O)c3ccc4c(c3)OCO4)[C@@H]12)c1ccc2c(c1)OCO2
mutagenic call [6]: active; positive

CN1CCC(=C2c3ccccc3C=Cc3ccccc32)CC1
mutagenic call [9]: no conclusion

O=NN1CCC(O)C1 (configuration not stated)
mutagenic call [7]: active; positive

C1=Cc2cc3cccc4ccc5ccc1c2c5c43
call (Species/Cell Type: Nonhuman, Assay Code: CCG+L, Evaluation Type: Evaluation A (Pre-1980)): active; positive | mutagenic call [8]: active; positive

CCOS(=O)(=O)CCl
mutagenic call (Species/Cell Type: Schizosaccharomyces pombe, Assay Type: Reverse gene mutation, Assay Code: YEZ+, Evaluation Type: Evaluation A (Pre-1980)): active; positive

O=S(=O)(O)c1ccccc1/C=C\c1ccc(-c2ccc(/C=C\c3ccccc3S(=O)(=O)O)cc2)cc1
mutagenic call [10]: inactive; negative | mutagenic call (Species/Cell Type: Saccharomyces cerevisiae, Assay Type: Mitotic recombination or gene conversion, Assay Code: YECT, Evaluation Type: Evaluation A (Pre-1980)): no conclusion | mutagenic call [9]: no conclusion

Cc1c2ccccc2cc2c(F)cc3ccccc3c12
mutagenic call (Species/Cell Type: Mouse prostate cells, Assay Type: Cell transformation, Assay Code: CTM+, Evaluation Type: Evaluation A (Pre-1980)): active; positive

CC/C(=C(/CC)c1ccc(O)cc1)c1ccc(O)cc1
mutagenic call [2]: no conclusion | mutagenic call (Species/Cell Type: Fischer rat embryo (RLV/1706) cells, Assay Type: Cell transformation, viral enhanced, Assay Code: CTR+, Evaluation Type: Evaluation A (Pre-1980)): active; positive | mutagenic call (Species/Cell Type: Human diploid fibroblasts, Assay Type: Unscheduled DNA synthesis (UDS) in vitro, DNA effects, Assay Code: UDHT, Evaluation Type: Evaluation A (Pre-1980)): no conclusion | mutagenic call [3]: active; positive | mutagenic call [4]: active; positive | mutagenic call (Species/Cell Type: Human, Sex: Male, Assay Type: Sperm morphology, Assay Code: SPHT, Evaluation Type: Evaluation A (Pre-1980)): no conclusion | mutagenic call (Species/Cell Type: Mammalian polychromatic erythrocytes, Assay Type: Micronucleus test, chromosome aberrations, Assay Code: MNT+, Evaluation Type: Evaluation A (Pre-1980)): active; positive | mutagenic call (Species/Cell Type: Mouse (BALB/c-3T3) cells, Assay Type: Cell transformation, Assay Code: CTB-, Evaluation Type: Evaluation A (Pre-1980)): inactive; negative | mutagenic call (Species/Cell Type: Mouse lymphoma (L5178Y) cells, Assay Type: Forward gene mutation at the thymidine kinase (TK) locus, chromosome aberrations, Assay Code: L51+, Evaluation Type: Evaluation A (Pre-1980)): active; positive | mutagenic call (Species/Cell Type: Mouse, Sex: Male, Assay Type: Sperm morphology, Assay Code: SPIT, Evaluation Type: Evaluation A (Pre-1980)): no conclusion | mutagenic call (Species/Cell Type: Neurospora crassa, Assay Type: Aneuploidy, chromosome aberrations, Assay Code: NEN-, Evaluation Type: Evaluation A (Pre-1980)): inactive; negative | call (Species/Cell Type: Nonhuman, Assay Code: CCG+, Evaluation Type: Evaluation A (Pre-1980)): active; positive | mutagenic call (Species/Cell Type: Nonhuman, Assay Type: Sister-chromatid exchange (SCE) in vitro, Assay Code: SC2+, Evaluation Type: Evaluation B (Post-1980)): active; positive | mutagenic call (Species/Cell Type: Nonhuman, Assay Type: Sister-chromatid exchange (SCE) in vitro, Assay Code: SC2-, Evaluation Type: Evaluation A (Pre-1980)): inactive; negative | mutagenic call (Species/Cell Type: Nonhuman, Assay Type: Sister-chromatid exchange (SCE) in vivo, Assay Code: SC3+, Evaluation Type: Evaluation B (Post-1980)): active; positive | mutagenic call [5]: inactive; negative | mutagenic call (Species/Cell Type: Salmonella typhimurium, Assay Type: Forward and reverse gene mutation, body fluid assay, Assay Code: BFU-, Evaluation Type: Evaluation A (Pre-1980)): inactive; negative | mutagenic call (Species/Cell Type: Syrian hamster embryo (SHE) cells, Assay Type: Cell transformation, clonal assay, Assay Code: CTCT, Evaluation Type: Evaluation A (Pre-1980)): no conclusion | mutagenic call (Species/Cell Type: Tradescantia species, Assay Type: Gene mutation, Assay Code: TRM+D, Dose Response: With dose response, Evaluation Type: Evaluation A (Pre-1980)): active; positive

C[C@@H](CC[C@H](C)OS(C)(=O)=O)OS(C)(=O)=O
mutagenic call (Species/Cell Type: Rodents, Sex: Male, Assay Type: Dominant lethal test, Assay Code: DLT+, Evaluation Type: Evaluation A (Pre-1980)): active; positive

C/C=C(/C)C(=O)O[C@@H]1CCN2CC=C(COC(=O)[C@@](O)([C@H](C)O)C(C)(C)O)[C@H]12
mutagenic call (Species/Cell Type: Drosophila melanogaster, Assay Type: Sex-linked recessive lethal gene mutation, Assay Code: SRL+, Evaluation Type: Evaluation A (Pre-1980)): active; positive

O=C1CN=C(c2ccccc2)c2cc([N+](=O)[O-])ccc2N1
mutagenic call (Species/Cell Type: Aspergillus nidulans, Assay Type: Forward gene mutation, Assay Code: ASF+, Evaluation Type: Evaluation A (Pre-1980)): active; positive

CCCCCC[C@@H](O)C1C2=C(CC([C@H](O)C3CCCC(=O)O3)CC3=C(C(=O)OC3=O)[C@@H]1O)C(=O)OC2=O (some centres not stated)
mutagenic call [10]: inactive; negative

O[C@@H]1[C@H]2O[C@H]2c2cc3c(ccc4ccccc43)cc2[C@H]1O
mutagenic call (Species/Cell Type: Chinese hamster lung (V79) cells, Assay Type: Forward gene mutation at the HPRT or ouabain locus, Assay Code: V79+, Evaluation Type: Evaluation A (Pre-1980)): active; positive | mutagenic call [7]: active; positive

[CH3][Hg][Cl]
mutagenic call (Species/Cell Type: Bacillus subtilis (H17 vs M45), Assay Type: Rec-assay, spot test, DNA effects (bacterial DNA repair), Assay Code: REW+, Evaluation Type: Evaluation A (Pre-1980)): active; positive | mutagenic call (Species/Cell Type: Human lymphocytes, Assay Type: Sister-chromatid exchange (SCE) in vitro, Assay Code: SCL+, Evaluation Type: Evaluation B (Post-1980)): active; positive | mutagenic call (Species/Cell Type: Human, Assay Type: Sister-chromatid exchange (SCE) in vitro, Assay Code: SC1+, Evaluation Type: Evaluation B (Post-1980)): active; positive | mutagenic call (Species/Cell Type: Nonhuman, Assay Type: Sister-chromatid exchange (SCE) in vivo, Assay Code: SC3T, Evaluation Type: Evaluation B (Post-1980)): no conclusion | mutagenic call [10]: inactive; negative

Cc1ccc(N=Nc2c(O)ccc3ccccc23)c(C)c1
mutagenic call (Species/Cell Type: Bacillus subtilis (H17 vs M45T), Assay Type: Rec-assay, spot test, DNA effects (bacterial DNA repair), Assay Code: REXT, Evaluation Type: Evaluation A (Pre-1980)): no conclusion | mutagenic call [8]: active; positive
